Reference: US20220281848A1, “PYRAZOLE-SUBSTITUTED PYRROLIDINONES AS HERBICIDES” (FMC Corporation, priority 2019, published 2022)

Legend:
Type in all cases: in vivo
Conditions in all cases: after 13 d
[1] = system: barnyardgrass (Echinochloa crus-galli, ECHCG); test: Test A post-emergence, barnyardgrass
Method: (§1) Seeds of corn (Zea mays, ZEAMX), giant foxtail (Setaria faberi, SETFA), barnyardgrass (Echinochloa crus-galli, ECHCG), ivy-leaved morning glory (Ipomoea hederacea, IPOHE)), redroot pigweed (Amaranthus retroflexus, AMARE) and velvetleaf (Abutilon theophrasti, ABUTH) were sown in standard soil in pots. After cultivation for 8 d under controlled conditions in a glasshouse (at 24/16° C., day/night; 14 h light; 65% humidity), the plants were sprayed with an aqueous spray solution derived from the formulation of the technical active ingredient in acetone/water (50:50) solution containing 0.5% Tween 20 (polyoxyethylene sorbitan monolaurate, CAS RN 9005-64-5) to give a final dose of 15.625, 62.5 or 250 g/ha of test compound.
(§2) The test plants were then grown on under controlled conditions in a glasshouse (at 24/16° C., day/night; 14 h light; 65% humidity) and watered twice daily. After 13 d the test was evaluated (100=total damage to plant; 0=no damage to plant).

[2] = system: velvetleaf (Abutilon theophrasti, ABUTH); test: Test A post-emergence, velvetleaf
Method: as §1, §2

corn (Zea mays, ZEAMX) [3] = test: Test A pre-emergence, corn
Method: as §1, with “IPOHE),” for “IPOHE)),”, “one day” for “8 d”
(§3) The test plants were then grown under controlled conditions in a glasshouse (at 24/16° C., day/night; 14 h light; 65% humidity) and watered twice daily. After 13 d the test was evaluated (100=total damage to plant; 0=no damage to plant).

[4] = system: velvetleaf (Abutilon theophrasti, ABUTH); test: Test A pre-emergence, velvetleaf
Method: as §1, with “IPOHE),” for “IPOHE)),”, “one day” for “8 d”
as §3

[5] = system: redroot pigweed (Amaranthus retroflexus, AMARE); test: Test A post-emergence, redroot pigweed
Method: as §1, §2

corn (Zea mays, ZEAMX) [6] = test: Test A post-emergence, corn
Method: as §1, §2

[7] = system: redroot pigweed (Amaranthus retroflexus, AMARE); test: Test A pre-emergence, redroot pigweed
Method: as §1, with “IPOHE),” for “IPOHE)),”, “one day” for “8 d”
as §3

[8] = system: ivy-leaved morning glory (Ipomoea hederacea, IPOHE); test: Test A post-emergence, ivy-leaved morning glory
Method: as §1, §2

[9] = system: barnyardgrass (Echinochloa crus-galli, ECHCG); test: Test A pre-emergence, barnyardgrass
Method: as §1, with “IPOHE),” for “IPOHE)),”, “one day” for “8 d”
as §3

[10] = system: giant foxtail (Setaria faberi, SETFA); test: Test A post-emergence, giant foxtail
Method: as §1, §2

[11] = system: ivy-leaved morning glory (Ipomoea hederacea, IPOHE); test: Test A pre-emergence, ivy-leaved morning glory
Method: as §1, with “IPOHE),” for “IPOHE)),”, “one day” for “8 d”
as §3

[12] = system: giant foxtail (Setaria faberi, SETFA); test: Test A pre-emergence, giant foxtail
Method: as §1, with “IPOHE),” for “IPOHE)),”, “one day” for “8 d”
as §3

Row | SMILES | damage to plant (100=total damage; 0=no damage) ECHCG ([1]; Post-Emergence at 15.625 g/ha) | damage to plant (100=total damage; 0=no damage) ECHCG ([1]; Post-Emergence at 62.5 g/ha) | damage to plant (100=total damage; 0=no damage) ABUTH ([2]; Post-Emergence at 15.625 g/ha) | damage to plant (100=total damage; 0=no damage) ABUTH ([2]; Post-Emergence at 62.5 g/ha) | damage to plant (100=total damage; 0=no damage) ZEAMX (corn (Zea mays, ZEAMX) [3]; Pre-Emergence at 15.625 g/ha) | damage to plant (100=total damage; 0=no damage) ZEAMX (corn (Zea mays, ZEAMX) [3]; Pre-Emergence at 62.5 g/ha) | damage to plant (100=total damage; 0=no damage) ABUTH ([4]; Pre-Emergence at 15.625 g/ha) | damage to plant (100=total damage; 0=no damage) ABUTH ([4]; Pre-Emergence at 62.5 g/ha) | damage to plant (100=total damage; 0=no damage) AMARE ([5]; Post-Emergence at 15.625 g/ha) | damage to plant (100=total damage; 0=no damage) AMARE ([5]; Post-Emergence at 62.5 g/ha) | damage to plant (100=total damage; 0=no damage) ZEAMX (corn (Zea mays, ZEAMX) [6]; Post-Emergence at 15.625 g/ha) | damage to plant (100=total damage; 0=no damage) ZEAMX (corn (Zea mays, ZEAMX) [6]; Post-Emergence at 62.5 g/ha) | damage to plant (100=total damage; 0=no damage) AMARE ([7]; Pre-Emergence at 15.625 g/ha) | damage to plant (100=total damage; 0=no damage) AMARE ([7]; Pre-Emergence at 62.5 g/ha) | damage to plant (100=total damage; 0=no damage) IPOHE ([8]; Post-Emergence at 15.625 g/ha) | damage to plant (100=total damage; 0=no damage) IPOHE ([8]; Post-Emergence at 62.5 g/ha) | damage to plant (100=total damage; 0=no damage) ECHCG ([9]; Pre-Emergence at 15.625 g/ha) | damage to plant (100=total damage; 0=no damage) ECHCG ([9]; Pre-Emergence at 62.5 g/ha) | damage to plant (100=total damage; 0=no damage) SETFA ([10]; Post-Emergence at 15.625 g/ha) | damage to plant (100=total damage; 0=no damage) SETFA ([10]; Post-Emergence at 62.5 g/ha) | other results
1 | CN1CC(c2cc(C(F)(F)F)n(C)n2)C(C(=O)Nc2cccc(F)c2OC(F)(F)F)C1=O (racemic) [Compound 16] | 0 | 50 | 0 | 0 | 0 | 0 | 0 | 0 | 0 | 0 | 0 | 0 | 0 | 0 | 0 | 0 | 0 | 80 | 0 | 60 | damage to plant (100=total damage; 0=no damage) ECHCG ([1]; Post-Emergence at 250 g/ha): 70; damage to plant (100=total damage; 0=no damage) ABUTH ([2]; Post-Emergence at 250 g/ha): 0; damage to plant (100=total damage; 0=no damage) ZEAMX (corn (Zea mays, ZEAMX) [3]; Pre-Emergence at 250 g/ha): 30; damage to plant (100=total damage; 0=no damage) ABUTH ([4]; Pre-Emergence at 250 g/ha): 0; damage to plant (100=total damage; 0=no damage) AMARE ([5]; Post-Emergence at 250 g/ha): 0; damage to plant (100=total damage; 0=no damage) ZEAMX (corn (Zea mays, ZEAMX) [6]; Post-Emergence at 250 g/ha): 0; damage to plant (100=total damage; 0=no damage) AMARE ([7]; Pre-Emergence at 250 g/ha): 0; damage to plant (100=total damage; 0=no damage) IPOHE ([8]; Post-Emergence at 250 g/ha): 0; damage to plant (100=total damage; 0=no damage) ECHCG ([9]; Pre-Emergence at 250 g/ha): 90; damage to plant (100=total damage; 0=no damage) SETFA ([10]; Post-Emergence at 250 g/ha): 70; damage to plant (100=total damage; 0=no damage) IPOHE ([11]; Pre-Emergence at 15.625 g/ha): 0; damage to plant (100=total damage; 0=no damage) IPOHE ([11]; Pre-Emergence at 62.5 g/ha): 0; damage to plant (100=total damage; 0=no damage) IPOHE ([11]; Pre-Emergence at 250 g/ha): 50; damage to plant (100=total damage; 0=no damage) SETFA ([12]; Pre-Emergence at 15.625 g/ha): 0; damage to plant (100=total damage; 0=no damage) SETFA ([12]; Pre-Emergence at 62.5 g/ha): 80; damage to plant (100=total damage; 0=no damage) SETFA ([12]; Pre-Emergence at 250 g/ha): 90
2 | CCn1nc([C@H]2CN(C)C(=O)[C@@H]2C(=O)Nc2ccc(F)nc2F)c2cccc(F)c21 [Compound 11] | 50 | 90 | 0 | 0 | 0 | 0 | 0 | 0 | 0 | 0 | 10 | 10 | 0 | 0 | 0 | 0 | 20 | 90 | 60 | 80 | damage to plant (100=total damage; 0=no damage) ECHCG ([1]; Post-Emergence at 250 g/ha): 90; damage to plant (100=total damage; 0=no damage) ABUTH ([2]; Post-Emergence at 250 g/ha): 0; damage to plant (100=total damage; 0=no damage) ZEAMX (corn (Zea mays, ZEAMX) [3]; Pre-Emergence at 250 g/ha): 20; damage to plant (100=total damage; 0=no damage) ABUTH ([4]; Pre-Emergence at 250 g/ha): 0; damage to plant (100=total damage; 0=no damage) AMARE ([5]; Post-Emergence at 250 g/ha): 0; damage to plant (100=total damage; 0=no damage) ZEAMX (corn (Zea mays, ZEAMX) [6]; Post-Emergence at 250 g/ha): 40; damage to plant (100=total damage; 0=no damage) AMARE ([7]; Pre-Emergence at 250 g/ha): 0; damage to plant (100=total damage; 0=no damage) IPOHE ([8]; Post-Emergence at 250 g/ha): 0; damage to plant (100=total damage; 0=no damage) ECHCG ([9]; Pre-Emergence at 250 g/ha): 90; damage to plant (100=total damage; 0=no damage) SETFA ([10]; Post-Emergence at 250 g/ha): 80; damage to plant (100=total damage; 0=no damage) IPOHE ([11]; Pre-Emergence at 15.625 g/ha): 0; damage to plant (100=total damage; 0=no damage) IPOHE ([11]; Pre-Emergence at 62.5 g/ha): 0; damage to plant (100=total damage; 0=no damage) IPOHE ([11]; Pre-Emergence at 250 g/ha): 10; damage to plant (100=total damage; 0=no damage) SETFA ([12]; Pre-Emergence at 15.625 g/ha): 80; damage to plant (100=total damage; 0=no damage) SETFA ([12]; Pre-Emergence at 62.5 g/ha): 90; damage to plant (100=total damage; 0=no damage) SETFA ([12]; Pre-Emergence at 250 g/ha): 90
3 | Cn1nc([C@H]2CNC(=O)[C@@H]2C(=O)Nc2cccc(F)n2)cc1C(C)(C)C [Compound 1] | 0 | 0 | 0 | 0 | 0 | 0 | 0 | 0 | 0 | 0 | 0 | 0 | 0 | 0 | 0 | 0 | 0 | 0 | 0 | 0 | damage to plant (100=total damage; 0=no damage) IPOHE ([11]; Pre-Emergence at 15.625 g/ha): 0; damage to plant (100=total damage; 0=no damage) IPOHE ([11]; Pre-Emergence at 62.5 g/ha): 0; damage to plant (100=total damage; 0=no damage) SETFA ([12]; Pre-Emergence at 15.625 g/ha): 0; damage to plant (100=total damage; 0=no damage) SETFA ([12]; Pre-Emergence at 62.5 g/ha): 0
4 | CN1CC(c2cc(Cl)n(C)n2)C(C(=O)Nc2cccc(F)c2F)C1=O (racemic) [Compound 27] | 20 | 50 | 0 | 0 | 0 | 10 | 0 | 0 | 30 | 40 | 0 | 0 | 0 | 0 | 10 | 10 | 70 | 90 | 10 | 50 | damage to plant (100=total damage; 0=no damage) ECHCG ([1]; Post-Emergence at 250 g/ha): 70; damage to plant (100=total damage; 0=no damage) ABUTH ([2]; Post-Emergence at 250 g/ha): 0; damage to plant (100=total damage; 0=no damage) ZEAMX (corn (Zea mays, ZEAMX) [3]; Pre-Emergence at 250 g/ha): 10; damage to plant (100=total damage; 0=no damage) ABUTH ([4]; Pre-Emergence at 250 g/ha): 0; damage to plant (100=total damage; 0=no damage) AMARE ([5]; Post-Emergence at 250 g/ha): 30; damage to plant (100=total damage; 0=no damage) ZEAMX (corn (Zea mays, ZEAMX) [6]; Post-Emergence at 250 g/ha): 10; damage to plant (100=total damage; 0=no damage) AMARE ([7]; Pre-Emergence at 250 g/ha): 0; damage to plant (100=total damage; 0=no damage) IPOHE ([8]; Post-Emergence at 250 g/ha): 20; damage to plant (100=total damage; 0=no damage) ECHCG ([9]; Pre-Emergence at 250 g/ha): 90; damage to plant (100=total damage; 0=no damage) SETFA ([10]; Post-Emergence at 250 g/ha): 70; damage to plant (100=total damage; 0=no damage) IPOHE ([11]; Pre-Emergence at 15.625 g/ha): 0; damage to plant (100=total damage; 0=no damage) IPOHE ([11]; Pre-Emergence at 62.5 g/ha): 0; damage to plant (100=total damage; 0=no damage) IPOHE ([11]; Pre-Emergence at 250 g/ha): 10; damage to plant (100=total damage; 0=no damage) SETFA ([12]; Pre-Emergence at 15.625 g/ha): 60; damage to plant (100=total damage; 0=no damage) SETFA ([12]; Pre-Emergence at 62.5 g/ha): 80; damage to plant (100=total damage; 0=no damage) SETFA ([12]; Pre-Emergence at 250 g/ha): 90
